# Patent US10202361B2, “Pyridazinones as herbicides” (E I DU PONT DE NEMOURS AND COMPANY, priority 2014, dated 2019)
# Like-named read-outs stand apart in the source and are kept apart here.
# Assays:
# Test in all cases: Test C pre-/postemergence greenhouse herbicide test
# Assay type in all cases: in vivo
# soybean (Glycine max) = conditions: Glycine max, Soybean, read-out: Plant response rating; for plant injury at 62 g/ha: 62 g ai/ha; for plant injury at 125 g/ha: 125 g ai/ha; for plant injury at 250 g/ha: 250 g ai/ha
# Procedure, shortened: (§1)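 Greenhouse pre- and postemergence screen: compounds in a non-phytotoxic solvent mix plus surfactant were applied to soil/sand-sown seeds or to 1- to 4-leaf plants. Visual rating 13–15 d later, 0 (no effect) to 100 (complete control).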
# [1] = test system: morningglory (Ipomoea coccinea); conditions: Morningglory
# Procedure, shortened: as §1
# [2] = test system: pigweed (Amaranthus retroflexus); conditions: Amaranthus retroflexus, Pigweed, read-out: Plant response rating; for pest or weed control at 62 g/ha: 62 g ai/ha; for pest or weed control at 125 g/ha: 125 g ai/ha; for pest or weed control at 250 g/ha: 250 g ai/ha
# Procedure, shortened: as §1
# corn (Zea mays) = conditions: Zea mays, Corn, read-out: Plant response rating; for plant injury at 31 g/ha: 31 g ai/ha; for plant injury at 62 g/ha: 62 g ai/ha; for plant injury at 125 g/ha: 125 g ai/ha; for plant injury at 250 g/ha: 250 g ai/ha
# Procedure, shortened: as §1
# [3] = test system: lambsquarters (Chenopodium album)
# Procedure, shortened: as §1
# [4] = test system: wheat (winter wheat, Triticum aestivum); conditions: Triticum aestivum, Wheat, read-out: Plant response rating; for plant injury at 62 g/ha: 62 g ai/ha; for plant injury at 125 g/ha: 125 g ai/ha; for plant injury at 250 g/ha: 250 g ai/ha
# Procedure, shortened: as §1
# [5] = test system: ryegrass, Italian (Italian ryegrass, Lolium multiflorum); conditions: Lolium multiflorum, Ryegrass, Italian, read-out: Plant response rating; for pest or weed control at 31 g/ha: 31 g ai/ha; for pest or weed control at 62 g/ha: 62 g ai/ha; for pest or weed control at 125 g/ha: 125 g ai/ha; for pest or weed control at 250 g/ha: 250 g ai/ha
# Procedure, shortened: as §1
# [6] = test system: crabgrass, Large (large crabgrass, Digitaria sanguinalis); conditions: Digitaria sanguinalis, Crabgrass, Large, read-out: Plant response rating; for pest or weed control at 31 g/ha: 31 g ai/ha; for pest or weed control at 62 g/ha: 62 g ai/ha; for pest or weed control at 125 g/ha: 125 g ai/ha; for pest or weed control at 250 g/ha: 250 g ai/ha
# Procedure, shortened: as §1
# [7] = test system: oat, wild (wild oat, Avena fatua); conditions: Postemergence
# Procedure, shortened: as §1
# [8] = test system: waterhemp (common waterhemp, Amaranthus rudis); conditions: Waterhemp
# Procedure, shortened: as §1
# kochia (Kochia scoparia) = conditions: Postemergence
# Procedure, shortened: as §1
# [9] = test system: blackgrass (Alopecurus myosuroides); conditions: Alopecurus myosuroides, Blackgrass, read-out: Plant response rating; for pest or weed control at 31 g/ha: 31 g ai/ha; for pest or weed control at 62 g/ha: 62 g ai/ha; for pest or weed control at 125 g/ha: 125 g ai/ha; for pest or weed control at 250 g/ha: 250 g ai/ha
# Procedure, shortened: as §1
# [10] = test system: ragweed (common ragweed, Ambrosia elatior); conditions: Ambrosia artemisiifolia, Ragweed, read-out: Plant response rating; for pest or weed control at 31 g/ha: 31 g ai/ha; for pest or weed control at 62 g/ha: 62 g ai/ha; for pest or weed control at 125 g/ha: 125 g ai/ha; for pest or weed control at 250 g/ha: 250 g ai/ha
# Procedure, shortened: as §1
# [11] = post-emergence, Postemergence, 31 g ai/ha
smiles,measurement,setting,value
"COc1cc(=O)n(-c2ccc(F)cc2)nc1Cc1ccnc(C(F)(F)F)c1 [Compound 17, 2-(4-fluorophenyl)-5-methoxy-6-[[2-(trifluoromethyl)-4-pyridinyl]methyl]-3 (2H)-pyridazinone]",plant injury at 31 g/ha,soybean (Glycine max); [11],80%
same,plant injury at 62 g/ha,"soybean (Glycine max); post-emergence, Postemergence",90%
same,plant injury at 125 g/ha,"soybean (Glycine max); post-emergence, Postemergence",90%
same,plant injury at 250 g/ha,"soybean (Glycine max); post-emergence, Postemergence",90%
same,plant injury at 62 g/ha,"soybean (Glycine max); pre-emergence, Preemergence",55%
same,plant injury at 125 g/ha,"soybean (Glycine max); pre-emergence, Preemergence",95%
same,plant injury at 250 g/ha,"soybean (Glycine max); pre-emergence, Preemergence",98%
same,Plant response rating,"[1]; Postemergence, 31 g ai/ha",65
same,Plant response rating,"[1]; Postemergence, 62 g ai/ha",65
same,Plant response rating,"[1]; Postemergence, 125 g ai/ha",65
same,Plant response rating,"[1]; Postemergence, 250 g ai/ha",70
same,Plant response rating,"[1]; Preemergence, 31 g ai/ha",85
same,Plant response rating,"[1]; Preemergence, 62 g ai/ha",85
same,Plant response rating,"[1]; Preemergence, 125 g ai/ha",100
same,Plant response rating,"[1]; Preemergence, 250 g ai/ha",100
same,pest or weed control at 62 g/ha,"[2]; post-emergence, Postemergence",60%
same,pest or weed control at 125 g/ha,"[2]; post-emergence, Postemergence",60%
same,pest or weed control at 250 g/ha,"[2]; post-emergence, Postemergence",70%
same,pest or weed control at 31 g/ha,"[2]; pre-emergence, Preemergence, 31 g ai/ha",100%
same,pest or weed control at 62 g/ha,"[2]; pre-emergence, Preemergence",100%
same,pest or weed control at 125 g/ha,"[2]; pre-emergence, Preemergence",100%
same,pest or weed control at 250 g/ha,"[2]; pre-emergence, Preemergence",100%
same,plant injury at 31 g/ha,"corn (Zea mays); post-emergence, Postemergence",10%
same,plant injury at 62 g/ha,"corn (Zea mays); post-emergence, Postemergence",15%
same,plant injury at 125 g/ha,"corn (Zea mays); post-emergence, Postemergence",15%
same,plant injury at 250 g/ha,"corn (Zea mays); post-emergence, Postemergence",15%
same,plant injury at 31 g/ha,"corn (Zea mays); pre-emergence, Preemergence",45%
same,plant injury at 62 g/ha,"corn (Zea mays); pre-emergence, Preemergence",65%
same,plant injury at 125 g/ha,"corn (Zea mays); pre-emergence, Preemergence",85%
same,plant injury at 250 g/ha,"corn (Zea mays); pre-emergence, Preemergence",100%
same,Plant response rating,"[3]; Postemergence, 31 g ai/ha",75
same,Plant response rating,"[3]; Postemergence, 62 g ai/ha",75
same,Plant response rating,"[3]; Postemergence, 125 g ai/ha",90
same,Plant response rating,"[3]; Postemergence, 250 g ai/ha",90
same,Plant response rating,"[3]; Preemergence, 31 g ai/ha",95
same,Plant response rating,"[3]; Preemergence, 62 g ai/ha",95
same,Plant response rating,"[3]; Preemergence, 125 g ai/ha",95
same,Plant response rating,"[3]; Preemergence, 250 g ai/ha",98
same,plant injury at 31 g/ha,[4]; [11],5%
same,plant injury at 62 g/ha,"[4]; post-emergence, Postemergence",5%
same,plant injury at 125 g/ha,"[4]; post-emergence, Postemergence",5%
same,plant injury at 250 g/ha,"[4]; post-emergence, Postemergence",10%
same,plant injury at 62 g/ha,"[4]; pre-emergence, Preemergence",5%
same,plant injury at 125 g/ha,"[4]; pre-emergence, Preemergence",50%
same,plant injury at 250 g/ha,"[4]; pre-emergence, Preemergence",65%
same,pest or weed control at 31 g/ha,"[5]; post-emergence, Postemergence",5%
same,pest or weed control at 62 g/ha,"[5]; post-emergence, Postemergence",5%
same,pest or weed control at 125 g/ha,"[5]; post-emergence, Postemergence",5%
same,pest or weed control at 250 g/ha,"[5]; post-emergence, Postemergence",5%
same,pest or weed control at 31 g/ha,"[5]; pre-emergence, Preemergence",5%
same,pest or weed control at 62 g/ha,"[5]; pre-emergence, Preemergence",10%
same,pest or weed control at 125 g/ha,"[5]; pre-emergence, Preemergence",70%
same,pest or weed control at 250 g/ha,"[5]; pre-emergence, Preemergence",75%
same,pest or weed control at 31 g/ha,"[6]; post-emergence, Postemergence",10%
same,pest or weed control at 62 g/ha,"[6]; post-emergence, Postemergence",10%
same,pest or weed control at 125 g/ha,"[6]; post-emergence, Postemergence",15%
same,pest or weed control at 250 g/ha,"[6]; post-emergence, Postemergence",40%
same,pest or weed control at 31 g/ha,"[6]; pre-emergence, Preemergence",100%
same,pest or weed control at 62 g/ha,"[6]; pre-emergence, Preemergence",100%
same,pest or weed control at 125 g/ha,"[6]; pre-emergence, Preemergence",100%
same,pest or weed control at 250 g/ha,"[6]; pre-emergence, Preemergence",100%
same,Plant response rating,[7]; 31 g ai/ha,10
same,Plant response rating,[7]; 62 g ai/ha,15
same,Plant response rating,[7]; 125 g ai/ha,40
same,Plant response rating,[7]; 250 g ai/ha,45
same,Plant response rating,"[8]; Postemergence, 31 g ai/ha",60
same,Plant response rating,"[8]; Postemergence, 125 g ai/ha",85
same,Plant response rating,"[8]; Postemergence, 250 g ai/ha",85
same,Plant response rating,"[8]; Preemergence, 62 g ai/ha",100
same,Plant response rating,"[8]; Preemergence, 125 g ai/ha",100
same,Plant response rating,"[8]; Preemergence, 250 g ai/ha",100
same,Plant response rating,kochia (Kochia scoparia); 31 g ai/ha,80
same,Plant response rating,kochia (Kochia scoparia); 62 g ai/ha,90
same,Plant response rating,kochia (Kochia scoparia); 125 g ai/ha,90
same,Plant response rating,kochia (Kochia scoparia); 250 g ai/ha,90
same,pest or weed control at 31 g/ha,"[9]; post-emergence, Postemergence",5%
same,pest or weed control at 62 g/ha,"[9]; post-emergence, Postemergence",5%
same,pest or weed control at 125 g/ha,"[9]; post-emergence, Postemergence",5%
same,pest or weed control at 250 g/ha,"[9]; post-emergence, Postemergence",5%
same,pest or weed control at 31 g/ha,"[9]; pre-emergence, Preemergence",50%
same,pest or weed control at 62 g/ha,"[9]; pre-emergence, Preemergence",80%
same,pest or weed control at 125 g/ha,"[9]; pre-emergence, Preemergence",90%
same,pest or weed control at 250 g/ha,"[9]; pre-emergence, Preemergence",95%
same,pest or weed control at 31 g/ha,"[10]; post-emergence, Postemergence",40%
same,pest or weed control at 62 g/ha,"[10]; post-emergence, Postemergence",70%
same,pest or weed control at 125 g/ha,"[10]; post-emergence, Postemergence",80%
same,pest or weed control at 250 g/ha,"[10]; post-emergence, Postemergence",85%
same,pest or weed control at 31 g/ha,"[10]; pre-emergence, Preemergence",35%
same,pest or weed control at 62 g/ha,"[10]; pre-emergence, Preemergence",65%
same,pest or weed control at 125 g/ha,"[10]; pre-emergence, Preemergence",80%
same,pest or weed control at 250 g/ha,"[10]; pre-emergence, Preemergence",98%
